According to patent US20120028897A1, “METHODS AND COMPOSITIONS FOR THE TREATMENT OF FLUID RETENTION DISORDERS” (priority 2008, published 2012):
Entries after “also recorded” stand apart in the source; their conditions may differ.

Legend:
[1] = system: anesthetized rats; experiment: Renal sodium excretion during and after iv peptide infusion in anesthetized rats; format: in vivo, rat
Experimental: (§1) Rats were not fasted prior to clearance experiments and ranged in weight from 250-340 g at the time of study. Anesthesia was induced with an intraperitoneal injection of pentobarbital sodium (55 mg/kg BW) and maintained at a surgical plane by intermittent intravenous supplementation. Core temperature was maintained at 37° C. by a servo-controlled, heated operating table. Animals breathed spontaneously through a PE240 cannula inserted into the trachea. A jugular vein was catheterized with PE50 cannula tubing for intravenous infusion of isotonic saline containing FITC-labeled inulin (0.4% W/V, Sigma, St Louis Mo.) and two PE10 cannulae, one for supplemental anesthetic and the other for peptide infusions (described below in the experimental protocol section). The ureters were exposed through a midline ventral incision and cannulated with PE10 tubing about one cm from each kidney. Urine was collected over 20 min periods and the volume estimated by weight. A femoral artery was cannulated with PE50 tubing for continuous measurement of arterial blood pressure and intermittent blood samples (50 μl), taken at the mid point of each urine collection.
All rats received a continuous intravenous infusion (10 μl/min/100 g BW) of isotonic saline containing FITC-labeled inulin for measurement of inulin clearance. Uncongugated FITC label and small inulin polymers were removed from the inulin solution by overnight dialysis against isotonic saline (SpectraPor 6 dialysis membrane, 1 kDa cutoff-limit, Spectrum Laboratories, Rancho Domingo, Calif.). Undissolved particulates were removed from the solution by filtration through a […] filter before each experiment (Steriflip, Millipore Inc. Billerica, Mass.). At least one hr was allowed for equilibration before the start of urine collections, at which point plasma inulin concentration had stabilized at an average value of 30±3 μg/ml.
(§2) Arterial blood pressure was measured with a pressure transducer connected to a cardiovascular analyzer (Model 50110, Stoelting Instruments Wood Dale, Ill.). Left renal blood flow was measured in some rats with a flow probe positioned on the left renal artery and connected to a blood flow monitor (model 1 PRB probe and model T420 monitor, Transonic Systems Inc. Ithaca N.Y.). Arterial pressure, heart rate, and renal blood flow were digitized with an A/D converter (Keithley instruments, Cleveland, Ohio Model KUSB 3100) for display and storage on a Windows-based personal computer using open layers data acquisition software (Dtx_Ez, Data Translation Inc, Marlboro, Mass.). Sodium and potassium concentrations in plasma and urine were measured by flame photometry (Model 943, Instrumentation Laboratory Co., Lexington Mass.). Glomerular filtration rate (GFR) was measured as the renal clearance rate of FITC-labeled inulin
(§3) After post-surgical equilibration (−60 min) and three 20 min control clearance periods, huUgnA or B was infused into the jugular vein at 10 μl/min over a 60 min period, followed by a return to isotonic saline for the remainder of the experiment. The infused doses of huUgnA were 12, 25, 50, 100, or 200 nmol/kg BW in a total of 38 rats; huUgnB doses were 9, 18, 35, 70, and 140 nmol/kg BW in 35 rats. A UgnA mimetic, E. coli STh (ST-core), was infused into a third group of 32 rats at doses of 17, 32, 66, 133, and 266 nmol/kg. Renal excretory responses to these infusions were slow to develop and long lasting, so clearance periods were continued for 2-3 hr after the termination of the peptide infusion. This protracted time course limited protocols to one dose of one peptide in each rat. A control group of 10 rats received isotonic saline at 10 μl/min in place of the peptide infusion, but was otherwise treated in the same way as the experimental groups.
The effects of combined infusions of huUgnA and B were investigated in two groups of rats that received 35 nmol/kg of huUgnB together with either 25 nmol/kg (n=5) or 100 nmol/kg of huUgnA (n=5). […]

[2] = system: anesthetized rats; experiment: Mean arterial blood pressure during and after iv peptide infusion; format: in vivo, rat
Experimental: as §1, §2, §3
Group comparisons were made with one way analysis of variance (ANOVA) using peptide doses as column variables. Columns were further divided into pre-infusion, infusion, and post infusion subgroups to facilitate post hoc testing with Bonferroni's method for selected multiple comparisons. Row variables were individual measurements from each clearance period for each rat. Responses were tested for statistical significance by comparing control values during the pre-infusion, infusion and post infusion collection periods with corresponding values obtained from peptide-infused rats. Each experimental group included 5 different doses of huUgnA, huUgnB, or ST-core. Thus, fifteen comparisons were required for each measured variable in each group.

[3] = system: Mice; experiment: Natriuretic response in mice; format: in vivo, mouse
[4] = molecular target: cultured GC-C-expressing cells (Homo sapiens, UniProt P25092); conditions: cited from earlier work
[5] = huUgnB 35 nmol, Post-infuse, *** p<0.005 vs time control

Chain of cultured GC-C-expressing cells (P25092 24-1073): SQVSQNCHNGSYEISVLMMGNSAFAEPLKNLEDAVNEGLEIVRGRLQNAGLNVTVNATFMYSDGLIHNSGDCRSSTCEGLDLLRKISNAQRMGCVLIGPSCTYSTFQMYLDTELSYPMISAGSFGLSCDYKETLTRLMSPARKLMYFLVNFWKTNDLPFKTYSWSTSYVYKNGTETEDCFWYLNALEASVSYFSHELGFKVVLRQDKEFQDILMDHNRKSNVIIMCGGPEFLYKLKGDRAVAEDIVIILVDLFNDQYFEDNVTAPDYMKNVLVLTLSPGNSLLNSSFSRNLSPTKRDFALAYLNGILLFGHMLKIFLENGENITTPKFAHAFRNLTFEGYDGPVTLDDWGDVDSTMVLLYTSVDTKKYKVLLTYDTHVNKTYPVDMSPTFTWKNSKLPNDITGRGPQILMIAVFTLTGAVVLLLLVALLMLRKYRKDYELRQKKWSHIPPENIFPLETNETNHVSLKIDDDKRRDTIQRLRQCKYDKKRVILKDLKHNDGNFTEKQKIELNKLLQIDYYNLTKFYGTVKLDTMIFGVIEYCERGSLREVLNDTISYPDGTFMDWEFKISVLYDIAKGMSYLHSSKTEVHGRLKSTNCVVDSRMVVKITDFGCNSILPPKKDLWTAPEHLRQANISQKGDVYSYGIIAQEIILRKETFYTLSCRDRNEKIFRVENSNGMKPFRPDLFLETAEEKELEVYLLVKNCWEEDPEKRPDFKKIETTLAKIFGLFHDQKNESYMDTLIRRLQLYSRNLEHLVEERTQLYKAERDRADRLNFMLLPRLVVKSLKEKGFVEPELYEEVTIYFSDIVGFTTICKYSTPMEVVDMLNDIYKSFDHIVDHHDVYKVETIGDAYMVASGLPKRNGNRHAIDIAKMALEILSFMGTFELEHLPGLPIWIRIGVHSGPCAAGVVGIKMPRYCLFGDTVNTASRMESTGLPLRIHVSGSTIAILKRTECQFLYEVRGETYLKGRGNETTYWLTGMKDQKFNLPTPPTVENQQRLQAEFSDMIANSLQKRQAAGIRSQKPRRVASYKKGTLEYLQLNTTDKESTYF

CC(C)C[C@H](NC(=O)[C@@H]1CSSC[C@@H]2NC(=O)[C@H](CC(C)C)NC(=O)[C@H](CCC(=O)O)NC(=O)[C@@H](NC(=O)[C@H](CC(=O)O)NC(=O)[C@H](CC(=O)O)NC(=O)[C@@H](N)CC(N)=O)CSSC[C@H](NC(=O)[C@H](C)NC(=O)[C@H](C(C)C)NC(=O)[C@H](CC(N)=O)NC(=O)[C@H](C(C)C)NC2=O)C(=O)N[C@@H]([C@@H](C)O)C(=O)NCC(=O)N1)C(=O)O (single isomer, unassigned) [huUgnB, Asn Asp Asp Cys Glu Leu Cys Val Asn Val Ala Cys Thr Gly Cys Leu]
net cumulative sodium excretion, co-infusion ([1]; huUgnA 25 nmol/kg combined with huUgnB 35 nmol/kg): did not produce an additive response; also recorded: not different from the natriuresis evoked by A25 or B35 alone | net cumulative sodium excretion, co-infusion ([1]; huUgnA 100 nmol/kg combined with huUgnB 35 nmol/kg): almost completely suppressed; also recorded: significantly less than the response to B35 alone | FENa (fractional sodium excretion) ([1]; huUgnB 9 nmol, Infuse): 0.09 ± 0.02 % of filtered | UNaV (sodium excretion) ([1]; huUgnB 9 nmol, Infusion): 134.6 ± 53 nEq/min/g KW | FENa (fractional sodium excretion) ([1]; huUgnB 9 nmol, Post-infuse): 0.21 ± 0.04 % of filtered | UNaV (sodium excretion) ([1]; huUgnB 9 nmol, Post-infuse): 195 ± 37 nEq/min/g KW | FENa (fractional sodium excretion) ([1]; huUgnB 9 nmol, Pre-infuse): 0.05 ± 0.01 % of filtered | UNaV (sodium excretion) ([1]; huUgnB 9 nmol, Pre-infuse): 67 ± 17 nEq/min/g KW | FENa (fractional sodium excretion) ([1]; huUgnB 18 nmol, Infuse): 0.12 ± 0.03 % of filtered | UNaV (sodium excretion) ([1]; huUgnB 18 nmol, Infusion): 155.2 ± 34 nEq/min/g KW | FENa (fractional sodium excretion) ([1]; huUgnB 18 nmol, Post-infuse): 0.42 ± 0.08 % of filtered | UNaV (sodium excretion) ([1]; huUgnB 18 nmol, Post-infuse, *** p<0.005 vs time control): 538 ± 81*** nEq/min/g KW | FENa (fractional sodium excretion) ([1]; huUgnB 18 nmol, Pre-infuse): 0.07 ± 0.01 % of filtered | UNaV (sodium excretion) ([1]; huUgnB 18 nmol, Pre-infuse): 83 ± 19 nEq/min/g KW | FENa (fractional sodium excretion) ([1]; huUgnB 35 nmol, Infuse): 0.27 ± 0.07 % of filtered | UNaV (sodium excretion) ([1]; huUgnB 35 nmol, Infusion): 229.4 ± 47 nEq/min/g KW | FENa (fractional sodium excretion) [1, 5]: 0.62 ± 0.10*** % of filtered | UNaV (sodium excretion) [1, 5]: 729 ± 73*** nEq/min/g KW | FENa (fractional sodium excretion) ([1]; huUgnB 35 nmol, Pre-infuse): 0.12 ± 0.02 % of filtered | UNaV (sodium excretion) ([1]; huUgnB 35 nmol, Pre-infuse): 132 ± 40 nEq/min/g KW | FENa (fractional sodium excretion) ([1]; huUgnB 70 nmol, Infuse): 0.24 ± 0.14 % of filtered | UNaV (sodium excretion) ([1]; huUgnB 70 nmol, Infusion): 285.7 ± 165 nEq/min/g KW | FENa (fractional sodium excretion) ([1]; huUgnB 70 nmol, Post-infuse, * p<0.05 vs time control): 0.52 ± 0.10* % of filtered | UNaV (sodium excretion) ([1]; huUgnB 70 nmol, Post-infuse, *** p<0.005 vs time control): 696 ± 151*** nEq/min/g KW | FENa (fractional sodium excretion) ([1]; huUgnB 70 nmol, Pre-infuse): 0.08 ± 0.03 % of filtered | UNaV (sodium excretion) ([1]; huUgnB 70 nmol, Pre-infuse): 87 ± 31 nEq/min/g KW | FENa (fractional sodium excretion) ([1]; huUgnB 140 nmol, Infuse): 0.18 ± 0.05 % of filtered | UNaV (sodium excretion) ([1]; huUgnB 140 nmol, Infusion): 212.1 ± 67 nEq/min/g KW | FENa (fractional sodium excretion) ([1]; huUgnB 140 nmol, Post-infuse, ** p<0.01 vs time control): 0.65 ± 0.11** % of filtered | UNaV (sodium excretion) ([1]; huUgnB 140 nmol, Post-infuse, *** p<0.005 vs time control): 906 ± 170*** nEq/min/g KW | FENa (fractional sodium excretion) ([1]; huUgnB 140 nmol, Pre-infuse): 0.08 ± 0.01 % of filtered | UNaV (sodium excretion) ([1]; huUgnB 140 nmol, Pre-infuse): 103 ± 8 nEq/min/g KW | ED50, net cumulative sodium excretion over three hours ([1]; infused over first hour, log agonist response curve, FIG. 6A): 19 nmol/kg | ED50, net cumulative sodium excretion ([1]; log(agonist) vs response fit, p<0.02): about 20 nmol UgnB/kg BW | UNaV time course, ANOVA vs control ([1]; post infusion periods after 18, 35, 70, and 140 nmol/kg (p<0.001 for all)): significant natriuretic response | doses producing significant natriuresis (net excretory values) ([1]; rat, in vivo): above 9 nmol | shape of natriuretic dose-response relationship ([1]; rat, in vivo): conventional | BP (mean arterial blood pressure) ([2]; huUgnB 9 nmol, Infusion): 108 ± 6 mmHg | BP (mean arterial blood pressure) ([2]; huUgnB 9 nmol, Post-infuse): 107 ± 5 mmHg | BP (mean arterial blood pressure) ([2]; huUgnB 9 nmol, Pre-infuse): 115 ± 5 mmHg | BP (mean arterial blood pressure) ([2]; huUgnB 18 nmol, Infusion): 117 ± 3 mmHg | BP (mean arterial blood pressure) ([2]; huUgnB 18 nmol, Post-infuse): 113 ± 3 mmHg | BP (mean arterial blood pressure) ([2]; huUgnB 18 nmol, Pre-infuse): 124 ± 2 mmHg | BP (mean arterial blood pressure) ([2]; huUgnB 35 nmol, Infusion): 108 ± 4 mmHg | BP (mean arterial blood pressure) ([2]; huUgnB 35 nmol, Post-infuse): 107 ± 3 mmHg | BP (mean arterial blood pressure) ([2]; huUgnB 35 nmol, Pre-infuse): 118 ± 3 mmHg | BP (mean arterial blood pressure) ([2]; huUgnB 70 nmol, Infusion): 107 ± 5 mmHg | BP (mean arterial blood pressure) ([2]; huUgnB 70 nmol, Post-infuse): 107 ± 4 mmHg | BP (mean arterial blood pressure) ([2]; huUgnB 70 nmol, Pre-infuse): 119 ± 3 mmHg | BP (mean arterial blood pressure) ([2]; huUgnB 140 nmol, Infusion): 119 ± 5 mmHg | BP (mean arterial blood pressure) ([2]; huUgnB 140 nmol, Post-infuse): 117 ± 5 mmHg | BP (mean arterial blood pressure) ([2]; huUgnB 140 nmol, Pre-infuse): 123 ± 5 mmHg | natriuretic response [3]: exhibit a natriuretic response | potency, fold less potent than the A isomer [4]: more than 100 fold
